Data: patent publication US20160228387A1, “SOLUBILIZED FORMULATION OF COQ10 FOR USE IN TREATMENT OF PARKINSON'S DISEASE” (NATIONAL RESEARCH COUNCIL OF CANADA (NRC), priority 2013, published 2016)
Values joined by “and” are separate entries in the source; they are usually repeats but may differ in a detail not shown here. Equal entries are not always repeated.

Assays:
PD patients = conditions: clinical trials in humans; cited from earlier work
[1] = Dispersion and stability in water; assay type: physicochemical; conditions: added to water
From the text: Based on the chemical structure, a-tocopherol constitutes 35.6% or one-third of the PTS molecule (Borowy-Borowski et al., 2004).

striatal dopamine = experiment: Striatal dopamine content in MPTP-treated mice
Experimental: (§1) To induce the dopaminergic neurodegeneration, male C57BL/6 mice were acclimatized to the new environment for 7 days before the start of the experiment. Animals were randomly divided into experimental groups and given 5 daily injections of MPTP (25 mg/kg/injection). Control mice were injected with saline. On days 5, 8, 14, 28, and 45 after the MPTP injections, mice were sacrificed and brain tissue was collected for immunohistochemistry, stereology, and biochemical analyses. Brains were fixed and immunostained with rabbit polyclonal anti-tyrosine hydroxylase antibody (brown) and counterstained with cresyl violet (blue) for anatomic reference. TH-positive cells were counted using an unbiased stereology method and cell survival was plotted as percentage of control.
(§2) Mice were acclimatized for 7 days before the start of the experiment and were randomly divided into 4 experimental groups (I-IV). Control group I was injected with saline and groups II-IV with MPTP (5×25 mg/kg). Mice in groups I and II were drinking regular water throughout the duration of the experiment. […] At the conclusion of the experiment (D28), all mice were sacrificed and brains were collected for immunohistochemistry, stereology, and biochemistry. Brains were fixed and immunostained with rabbit polyclonal anti-tyrosine hydroxylase antibody and counterstained with cresyl violet. Images were captured on an Olympus microscope equipped with Microcast 3CCD 1080p HD color camera.

[2] = test system: TH-positive neurons in SNpc; experiment: MPTP-induced neurodegeneration in mice: stereological count of TH-positive neurons in SNpc
Experimental: as §1
Mice were acclimatized for 7 days before the start of the experiment and were randomly divided into 3 experimental groups (I-III). Groups I and II were given regular water throughout the duration of the experiment. […] Groups II and III received 5 daily intraperitoneal injections of MPTP (25 mg/kg/injection) whereas, group I was injected with saline. At the conclusion of the experiment on D28, all animals were sacrificed and brain tissue was collected for immunohistochemistry, sterology, and Western blot.
Mice were acclimatized to the new environment for 7 days before the start of the experiment and were randomly divided into 3 experimental groups (I-III). Control group I was injected with saline and groups II and III received 5 daily MPTP injections (25 mg/kg/injection). […] The supplementation continued until the conclusion of the experiment on D28.
At the conclusion of the experiment on day 28 (D28), all mice were sacrificed and brains were collected for immunohistochemistry and stereology. Brains were fixed and immunostained with rabbit polyclonal anti-tyrosine hydroxylase antibody (brown) and counterstained with cresyl violet (blue) for anatomic reference. Images were captured on an Olympus microscope equipped with Microcast 3CCD 1080p HD color camera system.
as §2
Mice were acclimatized to the new environment and were randomly divided into 4 experimental groups (I, II, V, and VI).

MPTP-treated mice = experiment: Beam walk test (faults) in MPTP-treated mice; conditions: MPTP alone (group II), D10
Experimental: As an additional step, the beam walk test, described above, was used to assess motor skills. The handling and training of mice on the test apparatus were performed before the MPTP injections. Mice were acclimatized to the new environment for 7 days (D[-21]-D[-14]) before the handling (D[-14]-D[-7]) and training (D[-7]-D1). Animals were randomly divided into 3 experimental groups (I-III). […] Animals were allowed to cross a 5-mm square and a 100-cm long beam and the number of faults, as well as the time taken to walk the beam, were recorded.

rats exposed to PQ = experiment: Horizontal beam-walking test (leg slips) in PQ-treated rats; assay type: in vivo, rat; conditions: PQ alone (PQ3), 1st test phase, p<0.05
Experimental: Deficiency in motor function is a hallmark of PD. Motor skills of the rats treated in Example 2 were assessed using the beam walk test. All rats were assessed for performance on a horizontal beam-walking test for motor skills/motor deficits as measured by leg slips. The aluminium beam was 1.68 metres in length, 2 centimetres in width and 0.75 metres from the ground. A mirror was placed behind the beam, measuring 1.78 metres in length and 0.3 metres in height. Four weeks after the last injection, rats underwent one trial per day for four consecutive days (one training trial and three test trials). Eight weeks after the last injection another three test trials were performed (one trial per day). In the training trial, rats ran down the beam to the holding cage on a flat platform three times, each time with different distances between the holding cage and starting position. The first position was a quarter of the beam length, the second was half, and the last was the entire distance of the beam. […]
Rats received a small slice of apple in the holding cage located on a table at the end of the beam. […] The test trials were recorded using a standard video camera, located 2 metres perpendicular to the beam. The number of hind leg slips made from either leg during each test trial was later noted from viewing the recorded video clips. […]

TH-positive neurons = experiment: PQ-induced neurodegeneration in rats: stereological count of TH-positive neurons in midbrain sections; assay type: in vivo, Long Evans Hooded rats; conditions: for total number of TH positive neurons: mean ± SD
Experimental: Long Evans Hooded rats were given 5 intraperitoneal injections of PQ at a dose of 10 mg/kg body weight/injection dissolved in phosphate buffered saline (PBS), one injection every five days over a period of 20 days. Control rats received intraperitoneal injections of PBS alone. Brain tissue was examined immediately after the last PQ injection and, subsequently, 4 weeks and 8 weeks later. […] Fresh drinking solutions were provided every second day. At the conclusion of experimental treatments, rats were perfused with Tyrodes buffer containing heparin, the tissues were fixed with 10% formalin, and the brains extracted and stored in the 10% formalin until processing for immunohistochemistry. Animals were sacrificed at different time points for up to 8 weeks post-PQ exposure. Midbrain sections were prepared, immunostained with anti-tyrosine hydroxylase antibody and TH-positive neurons were counted using a stereologer in an unbiased manner.
The Ubisol-Q10 intervention was applied after the completion of PQ injections described above. By this time, neurodegenerative processes in the brain had already begun. […] This treatment began when nearly 18% of SN neurons were already lost (PQ1 group), but the question was whether the remaining vulnerable neurons could be saved. The midbrain sections were immunostained with anti-TH antibodies, and the stained neurons were counted using a stereologer in an unbiased manner.
There was also significant neuroprotection in the rats that received the Ubisol-Q10 supplemented drinking water for eight weeks post injections.

[3] = vitamin E alone; cited from earlier work

In the case of `COC1=C(OC)C(=O)C(CC=C(C)CCC=C(C)CCC=C(C)CCC=C(C)CCC=C(C)CCC=C(C)CCC=C(C)CCC=C(C)CCC=C(C)CCC=C(C)C)=C(C)C1=O` [CoQ10, 2,3-dimethoxy, 5-methyl, 6-polyisoprene para-benzoquinone], the “clinical benefit against PD” value (PD patients) is given as “no clinical benefit” and the behaviour in water [1] is given as “floats on the surface as insoluble material”.
In the case of `CN1CC=C(c2ccccc2)CC1` [MPTP, 1-methyl-4-phenyl-1,2,3,6-tetrahydropyridine], the “striatal dopamine level reduced to” value (striatal dopamine; MPTP alone (group II), by D28) is reported as 50%, the striatal dopamine level (striatal dopamine; MPTP alone, D28 (Table 7)) is reported as 15.1 ± 2.2 and the “decrease of striatal dopamine content” value (striatal dopamine; MPTP alone, by day 28) is reported as about 50%. The “loss of TH-positive neurons” value ([2]; MPTP alone (5 x 25 mg/kg i.p.), day 28) was 51.6% and 50%, the “number of tyrosine hydroxylase-positive neurons, mean” value ([2]; MPTP alone (Table 9; control = 100)) was 66 and the “surviving TH neurons (percentage of control)” value ([2]; MPTP alone, D28 (Table 5)) was 50.3 ± 7.3%. The “survival of TH-positive neurons” value ([2]; MPTP alone, day 45) was 50%, the “number of TH-positive neurons in SNpc” value ([2]; MPTP alone, regular water, D28 (Table 6)) was 3281 ± 291 and 3320 ± 700 and the “number of TH positive neurons in SNpc” value ([2]; MPTP alone, regular water, D56) was 4192 ± 295. The “number of faults on beam walk, average” value (MPTP-treated mice) was about 7 faults.
In the case of `C[n+]1ccc(-c2cc[n+](C)cc2)cc1` [PQ, paraquat], the “number of leg slips versus the other three groups” value (rats exposed to PQ) is reported as “significantly greater”, the “total number of TH positive neurons” value (TH-positive neurons; PQ alone (5 x 10 mg/kg i.p.), 0 weeks after last PQ injection (PQ1)) is reported as 8722 ± 3559 and the “loss of DA (TH-positive) neurons versus control” value (TH-positive neurons; PQ alone, during the PQ injection period (PQ1)) is reported as ~18% and ~15%. For the same compound, the “total number of TH positive neurons” value (TH-positive neurons; PQ alone, regular water, 4 weeks after PQ injections (PQ2)) was 6006 ± 1928 and 6227 ± 1682 and the “total number of TH positive neurons” value (TH-positive neurons; PQ alone, regular water, 8 weeks after PQ injections (PQ3)) was 5114 ± 1562 and 4661 ± 1097.
In the case of `Cc1c(C)c2c(c(C)c1O)CC[C@@](C)(CCC[C@H](C)CCC[C@H](C)CCCC(C)C)O2` [vitamin E, α-tocopherol], the effect on neuroprotection [3] is listed as “did not have a significant effect”.
With “polyoxyethanyl-cholesteryl sebacate [PCS]” the “number of tyrosine hydroxylase-positive neurons, mean” value ([2]; in drinking water from 2 weeks before to 3 weeks after MPTP injections (Table 9; control = 100)) was 58.
